Measured values taken from patent EP0306300B1, “Pyrrolo(1,2-a)imidazole and imidazo(1,2-a)pyridine derivatives and their use as 5-lipoxygenase pathway inhibitors” (SMITHKLINE BEECHAM CORPORATION, priority 1987, dated 1989).
Read-outs that look alike come from different tables or passages of the source.

Columns and labels:
[1] = Log D determination by high pressure liquid chromatography; type: physicochemical; settings: hplc ods, mobile phase MeOH:H2O, pH 7.4, read-out: (Log D) (Lipophilicity)
Experimental: The procedure used to determine the log D's listed on Table VI was as follows. A 20 »l sample was injected into a Shandon Hypersil ODS, 5» (100 mm x 4.6 mm ID) column and was eluted using a mobile phase of […] MeOH:H₂O (The aqueous portion was .01 M in KH₂PO₄ and adjusted to pH 7.4 with KOH after mixing the MeOH), at a flow rate of 2 ml per minute. Eluting peaks were detected by UV absorbance at […]. All samples were made up at 0.1 mg/ml. (Retentions were identical at 0.01 mg/ml.)
The data was analyzed by determining the regression line corresponding to the log k′ vs. literature log P of the reference standards.
The reference standards and their literature log P's included NaNO₂, 0.0; acetanalide, 1.16; acetophenone, 1.66; anisole, 2.08; chlorobenzene, 2.84; benzophenone, 3.18; anthracene, 4.45; and pentachlorobenzene, 5.12.

5-Lipoxygenase = target: T1, 5-Lipoxygenase (Rattus norvegicus, UniProt P12527); test: Assay of 5-lipoxygenase activity in RBL-1 high speed supernatant; type: biochemical; settings: read-out: 5-LO IC50
T1 construct: the supernatant was centrifuged at 100,000 x g for 60 min; host or cells: RBL-1 cells (soluble cell extract, high-speed supernatant)
T1 sequence (P12527 1-673): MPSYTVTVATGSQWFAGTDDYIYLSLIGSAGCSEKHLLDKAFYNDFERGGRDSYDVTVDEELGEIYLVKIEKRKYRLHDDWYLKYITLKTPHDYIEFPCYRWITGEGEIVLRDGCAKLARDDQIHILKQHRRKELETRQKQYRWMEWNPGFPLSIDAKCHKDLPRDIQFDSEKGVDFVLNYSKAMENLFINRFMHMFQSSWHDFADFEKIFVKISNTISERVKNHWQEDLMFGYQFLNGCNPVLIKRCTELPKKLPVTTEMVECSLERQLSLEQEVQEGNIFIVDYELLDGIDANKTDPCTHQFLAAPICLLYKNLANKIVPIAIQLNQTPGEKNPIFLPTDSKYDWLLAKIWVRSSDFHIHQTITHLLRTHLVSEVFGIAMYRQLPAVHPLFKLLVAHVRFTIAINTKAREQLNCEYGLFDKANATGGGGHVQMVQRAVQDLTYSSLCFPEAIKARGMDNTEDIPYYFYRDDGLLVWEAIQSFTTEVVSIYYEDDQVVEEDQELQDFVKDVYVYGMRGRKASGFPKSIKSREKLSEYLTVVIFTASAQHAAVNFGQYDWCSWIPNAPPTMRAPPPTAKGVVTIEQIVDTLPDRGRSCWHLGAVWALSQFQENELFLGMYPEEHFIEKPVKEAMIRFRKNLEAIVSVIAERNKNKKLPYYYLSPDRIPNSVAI
Experimental: For in vitro experiments, compounds were dissolved at appropriate concentrations in ethanol (final concentration 1.0%) and then diluted to final concentrations using the buffers indicated in the text.
The activities of these enzymes in extracts of RBL-1 cells were assayed using the method of Jakschik and Lee, Nature, 287, 51-52 (1980). RBL-1 cells were obtained from the American Type Culture Collection (#CRL 1378) and were grown at 37°C (5% CO₂ in air) in spinner culture in MEM supplemented with 10% heat inactivated fetal calf serum. Harvested cells were washed with 50 mM sodium phosphate buffer, pH 7.0, containing 1 mM EDTA and 0.1% gelatin, resuspended in fresh buffer (5 x 10⁷ cells/ml) and disrupted by nitrogen cavitation using the Parr bomb at 750 psi for 10 min. The broken cell extract was then centrifuged at 10,000 x g for 20 minutes (min) and the supernatant was centrifuged at 100,000 x g for 60 min. Aliquots (0.25 mls) of the supernatant were preincubated with or without drugs for 10 min, after which 10 ul CaCl₂ (2 mM) was added and the reaction was initiated with 2.5 »l of 2.5 mM arachidonic acid-1-¹⁴C (final concentration was 25 »M; specific activity 20,000 dpm/nmole). After incubation for 5 minutes at 37°C, the reaction was terminated by addition of 2 volumes (0.5 ml) ice cold acetone and the sample was allowed to deproteinize on ice for 10 minutes prior to centrifugation at 1,000 x g for 10 minutes. The deproteinized supernatant was adjusted to pH 3.5 with 2N formic acid and extracted with 2 volumes of ice cold ethyl acetate. The extracted samples were dried under argon, redissolved in ethyl acetate and applied to Whatman LK5D thin layer chromatography (TLC) plates which were developed using the A-9 solvent system [organic phase of ethyl acetate: […]:acetic acid: water (110:50:20:10)] described by Hamberg and Samuelsson, J. Biol. Chem., 241, 257-263 (1966). Arachidonic acid, 5-HETE, LTB₄ and PGD₂ were quantified with a Berthold LB 2832 autoscanner.
Under these conditions, only the 5-lipoxygenase pathway metabolites were detectable. The 5-HETE and di-HETEs were formed at a linear rate, and […] amounts of the arachidonic acid-1-¹⁴C substrate were utilized.

[2] = test system: arachidonic acid-induced edema in mice; test: Arachidonic acid-induced mouse ear inflammation (ear swelling); type: in vivo, male Balb/c mice; settings: po; for ED50: mouse, read-out: AAEE(MOUSE ED50 mg/kg (po))
Experimental: In the tests used to determine activity as 5-lipoxygenase pathway inhibitors, male Balb/c mice (20-28 g), were used. All mice were obtained from Charles River Breeding Laboratories, Kingston, N.Y. Within a single experiment, mice were age matched.
Reagents were employed as follows: Compounds of Formula (I) were each used as the free base. The compounds were homogenized in 0.5% tragacanth. Compounds were administered by […] at the indicated dose in a final volume of 10 ml/kg.
Arachidonic acid in acetone (2 mg/20 »l) was applied to the inner surface of the left ear. The thickness of both ears was then measured with a dial micrometer one hour after treatment, and the data were expressed as the change in thickness (10⁻³ cm) between treated and untreated ears.
Test compounds were given orally in acid/saline at the times indicated in the text prior to the topical application of arachidonic acid.
Dermatol., 82, 367-371 (1984)].

[3] = LTB4 production by RBL-1 high speed supernatant

Row | SMILES | chromatographic logD [1] | IC50 (5-Lipoxygenase; [3]) [µM] | ED50 [2] [mg/kg] | IC50 (5-Lipoxygenase; total HETE and Di-HETE production by RBL-1 high speed supernatant) [µM] | inhibition at 50 mg/kg ([2]; Mus musculus, 1 h, 50 mg/kg p.o., ear thickness one hour after 2 mg arachidonic acid) [%]
1 | CSc1ccc(-c2nc3n(c2-c2ccncc2)CCC3)cc1 [Compound 1, 2-(4-Methylthiophenyl)-3-(4-pyridyl)-6,7-dihydro-[5H]-pyrrolo[1,2-a]imidazole] | 2.68 | 20 | 20 | – | –
2 | C[S+]([O-])c1ccc(-c2nc3n(c2-c2ccncc2)CCC3)cc1 (centres unmarked) [Compound 2, 2-(4-Methylsulfinylphenyl)-3-(4-pyridyl)-6,7-dihydro-[5H]-pyrrolo[1,2-a]imidazole] | 0.85 | > 100 | 44 | > 100 | 44
